# Measured values: US10064814B2, “Use of spider venoms for skin whitening/depigmenting and composition comprising spider venoms molecules or synthetic analogs” (priority 2012, dated 2018)
# pIC50: −log10 of the molar value. Entries after “also recorded” stand apart in the source; their conditions may differ. Where two headings read alike, the source gives them in different places.
# Assays:
# [1] = target: mushroom tyrosinase (DOPA oxidase activity) (Agaricus bisporus, UniProt C7FF04); assay: DOPA oxidase inhibiting activity by spectrophotometry (mushroom tyrosinase assay); type: biochemical; settings: FIG. 12
# Method: (§1) Mushroom (Agaricus bisporus) tyrosinase (SIGMA-ALDRICH, T3824) has both DHICA oxidase and DOPA oxidase activity ([…] et al, Pigment Cell Res., vol. 12(2), p: 118-25, 1999).
# The effect of different spider venoms on the DOPA oxidase activity was measured spectrophotometrically. The DOPA oxidase activity was determined using L-DOPA as substrate at 0.2 mM. The amount of DOPA chrome (red pigment) formed was measured against blank at 475 nm. The percentage of DOPA oxidase inhibition was obtained from: Inhibition percentage=[…]
# With: • A: Absorbance at 475 nm of the reaction medium+inhibitor sample solution with enzyme • B: Absorbance at 475 nm of the reaction medium+inhibitor sample solution without enzyme (blank) • C: Absorbance at 475 nm of the reaction medium enzyme without inhibitor sample solution • D: Absorbance at 475 nm of the reaction medium without both enzyme and inhibitor sample solution […]
# For the DOPA activity assay: 500 μL of the L-DOPA solution at 0.4 mM is mixed with different volumes according to the different natural inhibitors at 10 mg/mL, and 5 μL of the mushroom tyrosinase solution (added last to initiate the enzymatic reaction and must be kept in ice). […] The absorbance is measured at 475 nm every minute for 15 min using a UV-VIS spectrophotometer BIOMATE 5®. […]
# B16F10 cells [2] = assay: Measurement of melanin content in B16F10 melanoma cells (melanogenesis assay); type: cell-based, murine; settings: for pIC50: read-out: IC50 melanogenesis (melanin released in the medium)
# Method: (§2) B16F10 were obtained from the American Type Culture Collection (ATCC CRL-6475, Manassas, Va., USA). Cells were cultured in Dulbecco's Modified Eagle Medium (DMEM) supplemented by 10% heat-inactivated foetal bovine serum (FBS, LONZA ltd., Basel, Switzerland) and penicillin/streptomycin (50 μg/ml) in a humidified atmosphere containing 5% CO2 at 37° C.
# Determination of the extracellular melanin is considered as an index of melanogenesis. B16F10 cells were cultured in 24-well plate (5.10^4 cells/well) in a phenol red free medium and stimulated with 100 nM of α-MSH. […] To quantify the amount of melanin released in the medium, the absorbance of 200 μl of supernatant was read at 405 nm. The values were normalized by the measurement of total protein level present in each well.
# Cells were washed with PBS1X and dissolved in 200 μl of NaOH 1N for 1 h at 60° C. The lysate was then centrifuged and the protein content determined by the Folin Lowry method, using the DC protein Assay kit from BIO-RAD (Marnes-la-Coquette, France). The absorbance is read at […].
# B16F10 are murine melanoma cells, a cell line able to produce melanin and considered as an accurate model to assess melanogenesis inhibition. Cells were seeded at 5.10^4 cells/well in a P24 well plate and stimulated by 100 nM of α-MSH, the melanin-stimulating hormone. […] 48 h later, according to […] & EBERLE (Analytical Biochemistry, vol. 159(1), p: 191-7, 1986), the amount of melanin released in the medium was spectrophotometrically measured at 405 nm and normalised to the protein content.
# tyrosinase = type: cell-based, murine; settings: α-MSH stimulated B16F10 cells, FIG. 16
# Method: Western blot analyses were performed on B16F10 cells treated as previously described.
# B16F10 cells [3] = assay: LDH cell-based assay (cytotoxicity); set-up: species or system murine; settings: 42.1 μM
# TRP1 = assay: Western blot analysis of TRP1 expression; type: cell-based, murine; settings: α-MSH stimulated B16F10 cells, FIG. 16
# Method: Cells were seeded at 1.10^6 cells/dish and cultivated in n-dish as previously described. After trypsination, the pelled were homogenized in a solution containing Sodium Dodecyl Sulphate (SDS) and were boiled 5 min at 96° C. to denature the proteins. Protein extracts were separated via a 10% SDS-PAGE for 1 h at 200 V and transferred onto a polyvinylidene difluoride membrane (GE healthcare Europe, Vélizy-villacoublay, France). The membranes were blocked overnight with 5% non-fat skim milk in a Tris-buffered saline solution containing 0.1% Tween. Membranes were incubated for 1 h at 37° C. with specific antibody against tyrosinase, TRP1 or MITF (C-19; G-17; N-15, 1:200 for Tyrosinase and TRP1 and 1:100 for MITF, Santa Cruz, Heidelberg, Germany) and actin as a control (C-11, 1:200, Santa Cruz). Membranes were incubated with secondary antibody coupled to horseradish peroxidase (HRP) for 2 h at room temperature (anti-goat 1:2500 for tyrosinase, TRP1 and MITF (ab 97120, Abcam, Paris, France) and anti-rabbit 1:2500 for actin (NA 934V, GE Healthcare)). […] Pre-stained protein markers were used for molecular weight.
# To explore the mechanism of action of Argiotoxin in melanogenesis processes, we assess its ability to regulate the protein expression of two enzymes, the tyrosinase and TRP1 which is implicated in the biosynthesis of black/brown pigments specifically. […]
# B16F10 cells [4] = assay: Cell viability assay (MTT); type: cell-based, murine; settings: 42.1 μM
# Method: as §2
# The evaluation of B16F10 cells survival relies on the reduction of the tetrazolium ring of water soluble MTT (3-[4,5-dimethylthiazol-2-yl]-2,5-diphenyltetrazolium bromide; Sigma Aldrich) into insoluble purple formazan crystals by the mitochondrial succinate dehydrogenase enzyme. The production of formazan directly reflects the number of living […] cells. B16F10 cells were seeded at 25000 per well in a 96-well plate and incubated in standard culture condition. […] Then, the supernatant was removed and replace by 50 μl of 0.5 mg/ml of MTT solution. The cells were exposed to MTT for 2 h. Finally, each well was washed by PBS1X and the crystals contained in wells are solubilized by adding 100 μl of DMSO. After briefly shaked the plate, the absorbance is measured at 600 nm.
# [5] = tested on: mushroom tyrosinase (DHICA oxidase activity); assay: DHICA oxidase-inhibiting activity by MBTH assay; type: biochemical, Agaricus bisporus; settings: DHICA substrate 0.25 mM
# Method: as §1
# DHICA is used as substrate at 0.25 mM. MBTH was obtained from Alfa Aesar and DHICA was prepared according to […] & ITO, (Anal. Biochem., vol. 170(2), p: 335-40, 1988). Here, the MBTH method was used. This method consists to visualize the production of hydrazone-quinone adduct by spectrophotometry. The principle is that MBTH captures the indole-quinone which was generated by the oxidation of dihydroxyindole compounds. DHICA is converted to indole-5,6-quinone-2-carboxylic acid by the DHICA oxidase activity of mushroom tyrosinase, the indole product is trapped by MBTH and the complex formation can be detected at 492 nm (OLIVARES et al, Biochem. J., vol. 354, p: 131-139, 2001). • c) The DHICA oxidase inhibiting activity using mushroom tyrosinase was assayed in vitro. The procedure is the same as described by WINDER & HARRIS (Eur. J. Biochem., vol. 198(2), p: 317-26, 1991) for DOPA oxidase with minor modifications. Purification of the fractions
# The experimental conditions are the same as previously mentioned. DHICA was used as substrate at 0.25 mM.
# Chain of mushroom tyrosinase (DOPA oxidase activity) (C7FF04 1-392): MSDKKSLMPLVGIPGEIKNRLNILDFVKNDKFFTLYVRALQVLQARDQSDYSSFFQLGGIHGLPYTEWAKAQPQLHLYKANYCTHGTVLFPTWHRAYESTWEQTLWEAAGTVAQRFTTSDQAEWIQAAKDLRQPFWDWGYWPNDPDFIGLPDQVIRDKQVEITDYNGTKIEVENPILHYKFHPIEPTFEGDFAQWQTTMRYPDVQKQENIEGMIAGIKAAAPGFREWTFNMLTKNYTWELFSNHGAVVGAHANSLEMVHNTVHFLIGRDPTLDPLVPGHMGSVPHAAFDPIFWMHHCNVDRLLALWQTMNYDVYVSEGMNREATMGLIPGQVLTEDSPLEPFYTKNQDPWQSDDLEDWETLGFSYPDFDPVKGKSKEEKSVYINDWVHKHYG
# Chain of mushroom tyrosinase (DOPA oxidase activity) (G1K3P4 1-150 partner): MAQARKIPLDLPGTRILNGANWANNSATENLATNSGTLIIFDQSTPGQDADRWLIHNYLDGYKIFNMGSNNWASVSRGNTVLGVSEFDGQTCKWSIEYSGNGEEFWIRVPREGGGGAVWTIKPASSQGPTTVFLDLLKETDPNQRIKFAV
SMILES,pIC50 [1],type of inhibition of DOPA oxidase activity ([1]; suggested from dose-response),"pIC50 (B16F10 cells [2]; B16F10, 100 nM α-MSH, 48 h treatment)",expression of tyrosinase protein (tyrosinase),cytotoxicity (LDH) (B16F10 cells [3]),expression of TRP1 protein (TRP1),cell death (MTT) (B16F10 cells [4]),inhibition of DHICA oxidase activity [5],fold higher activity on the cellular assay compared with DHPA (B16F10 cells [2]; B16F10 melanogenesis),"pIC50 (B16F10 cells [2]; Mus musculus, B16-F10, 48 h)","pIC50 (B16F10 cells [2]; Mus musculus, B16-F10, B16F10, 100 nM α-MSH, 48 h treatment)"
"O=C(O)Cc1ccc(O)cc1O [2,4-DHPAA]",~2.22,competitive inhibitor,~5.30,–,–,–,–,–,–,–,–
"N=C(N)NCCC[C@H](N)C(=O)NCCCNCCCNCCCCCNC(=O)[C@H](CC(N)=O)NC(=O)Cc1ccc(O)cc1O [Argiotoxin, Argiotoxin-636]",–,–,–,significant inhibition,neither cell death nor cytotoxicity,significant inhibition,neither cell death nor cytotoxicity,dose-dependent inhibition is visible up to 100 μM; also recorded: dose-dependent manner up to 75 μM,100 fold,~8.00,–
"O=c1cc(CO)occ1O [Kojic acid, Kojic Acid, reference compound]",–,–,–,–,–,faintly decreases,–,–,–,–,~5.30
